Values of other authors, collected in patent publication US10881613B2, “Fumarate polymersomes” (UCL BUSINESS LTD, priority 2016, dated 2021).

Conditions: in vivo

CC(O)CO (stereo not shown) [Propylene glycol]
half life (metabolized by the liver): 2 h
